Test system: RFPEC glycocalyx (adsorbed BSA)
Test: Whole glycocalyx thickness and coverage by BSA immunofluorescence (Example 2)
Format: cell-based, rat
Conditions: Hep III 2 h then 16 h, with or without 59 μg/mL HS
Method: RFPEC Culture. A rat fat pad endothelial cell (RFPEC) line^37 was utilized, originally isolated from rat epididymal fat pads by Dr. Mia Thi of Albert Einstein College of Medicine (Bronx, N.Y., USA). RFPECs were selected for their ability to naturally express a robust glycocalyx.^38 These ECs were cultured in tissue culture flasks at 37° C. and 5% CO2 in a humidified environment with Dulbecco's Modified Eagle's Medium (DMEM) supplemented with 10% fetal bovine serum (FBS) and 1% penicillin-streptomycin, all purchased from Thermo Fisher Scientific (Waltham, Mass., USA). For 3-(4,5-dimethylthiazol-2-yl)-5-(3-carboxymethoxyphenyl)-2-(4-sulfophenyl)-2H-tetrazolium (MTS) assays (Sigma-Aldrich Co., St Louis, Mo., USA), RFPECs were seeded at 3.7×10^4 cells/cm^2 in tissue culture-treated, 96-well plates (Falcon; Thermo Fisher Scientific) and imaged on a SpectraMax M3 plate reader to show cell viability and metabolic activity. For confocal imaging, RFPECs were seeded onto 12-mm diameter round glass cover slips (Thermo Fisher Scientific) at 1×10^4 cells/cm^2 in tissue culture-treated six-well plates (Falcon; Thermo Fisher Scientific). […]
RFPEC glycocalyx treatments. […] The red fluorescence detected from conjugated Alexa Fluor 647 was attributed to AuNP within the RFPEC monolayers (details are given in the “Confocal imaging and analysis” section). […]

## heparan sulfate [HS]
  whole glycocalyx (BSA) coverage of the EC layer: 75.2%+4.0%
mean±SEM
  whole glycocalyx (BSA) thickness: 2.41±0.3 μm

Source: US20200023001A1, “GlycoFix (Structurally And Functionally Repaired Endothelial Glycocalyx)” (Northeastern University, priority 2018, published 2020)
